From PubChem BioAssay (NCI)
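Values below derive from 48-hour exposures of cells grown in 96-well plates, with endpoints linearly interpolated between the two concentrations bracketing the appropriate inhibition level. GI50: concentration for 50% inhibition of growth. TGI marks complete inhibition of growth.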

What was measured:
Assay in all cases: inhibition of tumour cell growth, NCI panel, 48 h
786-0 renal = system: 786-0 renal
A498 renal = system: A498 renal
A549 NSCLC = system: A549 NSCLC
ACHN renal = system: ACHN renal
BT-549 breast = system: BT-549 breast
CAKI-1 renal = system: CAKI-1 renal
COLO 205 colon = system: COLO 205 colon
DU-145 prostate = system: DU-145 prostate
EKVX NSCLC = system: EKVX NSCLC
HCT-116 colon = system: HCT-116 colon
HCT-15 colon = system: HCT-15 colon
HL-60(TB) leukemia = system: HL-60(TB) leukemia
HS 578T breast = system: HS 578T breast
HT29 colon = system: HT29 colon
IGROV1 ovarian = system: IGROV1 ovarian
K-562 leukemia = system: K-562 leukemia
KM12 colon = system: KM12 colon
LOX IMVI melanoma = system: LOX IMVI melanoma
M14 melanoma = system: M14 melanoma
MCF7 breast = system: MCF7 breast
MDA-MB-231 breast = system: MDA-MB-231 breast
MDA-MB-435 = system: MDA-MB-435
MOLT-4 leukemia = system: MOLT-4 leukemia
NCI-H226 lung = system: NCI-H226 lung
NCI-H23 lung = system: NCI-H23 lung
NCI-H460 lung = system: NCI-H460 lung
NCI-H522 lung = system: NCI-H522 lung
NCI/ADR-RES ovarian = system: NCI/ADR-RES ovarian
OVCAR-3 ovarian = system: OVCAR-3 ovarian
OVCAR-4 ovarian = system: OVCAR-4 ovarian
OVCAR-5 ovarian = system: OVCAR-5 ovarian
OVCAR-8 ovarian = system: OVCAR-8 ovarian
PC-3 prostate = system: PC-3 prostate
RPMI-8226 leukemia = system: RPMI-8226 leukemia
RXF 393 renal = system: RXF 393 renal
SF-268 CNS = system: SF-268 CNS
SF-295 CNS = system: SF-295 CNS
SF-539 CNS = system: SF-539 CNS
SK-MEL-2 melanoma = system: SK-MEL-2 melanoma
SK-MEL-28 melanoma = system: SK-MEL-28 melanoma
SK-MEL-5 melanoma = system: SK-MEL-5 melanoma
SN12C renal = system: SN12C renal
SNB-19 CNS = system: SNB-19 CNS
SNB-75 CNS = system: SNB-75 CNS
SR leukemia = system: SR leukemia
SW-620 colon = system: SW-620 colon
TK-10 renal = system: TK-10 renal
U251 CNS = system: U251 CNS
UACC-257 melanoma = system: UACC-257 melanoma
UACC-62 melanoma = system: UACC-62 melanoma
UO-31 renal = system: UO-31 renal

For `CCCN1C(=O)/C(=C/c2cccc(O)c2)SC1=Nc1ccccc1`, the GI50 (786-0 renal) was 20.7 µM, the TGI (786-0 renal) was 49.9 µM and the GI50 (A498 renal) was 2.7 µM. It also gave a TGI (A498 renal) of 17.1 µM, a GI50 (A549 NSCLC) of 15.1 µM and a TGI (A549 NSCLC) of 31.7 µM. It also gave a GI50 (ACHN renal) of 16.4 µM, a TGI (ACHN renal) of 31.2 µM and a GI50 (BT-549 breast) of 17.1 µM. For the same molecule, the TGI (BT-549 breast) was 30.8 µM, the GI50 (CAKI-1 renal) was 22 µM and the TGI (CAKI-1 renal) was 38 µM. The GI50 (COLO 205 colon) was 18.4 µM, the TGI (COLO 205 colon) was 41.5 µM and the GI50 (DU-145 prostate) was 13 µM. For the same molecule, the TGI (DU-145 prostate) was 25.6 µM, the GI50 (EKVX NSCLC) was 19.2 µM and the TGI (EKVX NSCLC) was 33.9 µM. It also gave a GI50 (HCT-116 colon) of 38.3 µM, a TGI (HCT-116 colon) of over 100 µM and a GI50 (HCT-15 colon) of 14.8 µM. For the same molecule, the TGI (HCT-15 colon) was 29.6 µM, the GI50 (HL-60(TB) leukemia) was 30.8 µM and the TGI (HL-60(TB) leukemia) was over 100 µM. For the same molecule, the GI50 (HS 578T breast) was 16.7 µM, the TGI (HS 578T breast) was 34.7 µM and the GI50 (HT29 colon) was 17.3 µM. It also gave a TGI (HT29 colon) of 33.8 µM, a GI50 (IGROV1 ovarian) of 20 µM and a TGI (IGROV1 ovarian) of 44.4 µM. For the same molecule, the GI50 (K-562 leukemia) was 6.72 µM, the TGI (K-562 leukemia) was over 100 µM and the GI50 (KM12 colon) was 11.9 µM. It also gave a TGI (KM12 colon) of 26.9 µM, a GI50 (LOX IMVI melanoma) of 11.8 µM and a TGI (LOX IMVI melanoma) of 25.5 µM. For the same molecule, the GI50 (M14 melanoma) was 29 µM, the TGI (M14 melanoma) was 67.8 µM and the GI50 (MCF7 breast) was 24.4 µM. It also gave a TGI (MCF7 breast) of over 100 µM, a GI50 (MDA-MB-231 breast) of 11.4 µM and a TGI (MDA-MB-231 breast) of 24 µM. It also gave a GI50 (MDA-MB-435) of 22.7 µM, a TGI (MDA-MB-435) of 51.3 µM and a GI50 (MOLT-4 leukemia) of 38 µM. The TGI (MOLT-4 leukemia) was over 100 µM, the GI50 (NCI-H226 lung) was 20.8 µM and the TGI (NCI-H226 lung) was 41.2 µM. For the same molecule, the GI50 (NCI-H23 lung) was 19 µM, the TGI (NCI-H23 lung) was 34.3 µM and the GI50 (NCI-H460 lung) was 14.8 µM. The TGI (NCI-H460 lung) was 37.7 µM, the GI50 (NCI-H522 lung) was 22.3 µM and the TGI (NCI-H522 lung) was 60 µM. It also gave a GI50 (NCI/ADR-RES ovarian) of 17.3 µM, a TGI (NCI/ADR-RES ovarian) of 33.1 µM and a GI50 (OVCAR-3 ovarian) of 17.7 µM. It also gave a TGI (OVCAR-3 ovarian) of 32.3 µM, a GI50 (OVCAR-4 ovarian) of 23.2 µM and a TGI (OVCAR-4 ovarian) of 58.4 µM. For the same molecule, the GI50 (OVCAR-5 ovarian) was 16.8 µM, the TGI (OVCAR-5 ovarian) was 31 µM and the GI50 (OVCAR-8 ovarian) was 19 µM. It also gave a TGI (OVCAR-8 ovarian) of 37.9 µM, a GI50 (PC-3 prostate) of 16.9 µM and a TGI (PC-3 prostate) of 33.1 µM. For the same molecule, the GI50 (RPMI-8226 leukemia) was 14.5 µM, the TGI (RPMI-8226 leukemia) was 34.3 µM and the GI50 (RXF 393 renal) was 17.6 µM. For the same molecule, the TGI (RXF 393 renal) was 36.9 µM, the GI50 (SF-268 CNS) was 22.7 µM and the TGI (SF-268 CNS) was 57.3 µM. It also gave a GI50 (SF-295 CNS) of 19 µM, a TGI (SF-295 CNS) of 83.8 µM and a GI50 (SF-539 CNS) of 18.8 µM. It also gave a TGI (SF-539 CNS) of 34 µM, a GI50 (SK-MEL-2 melanoma) of 16.6 µM and a TGI (SK-MEL-2 melanoma) of 36.5 µM. It also gave a GI50 (SK-MEL-28 melanoma) of 21.1 µM, a TGI (SK-MEL-28 melanoma) of 42.5 µM and a GI50 (SK-MEL-5 melanoma) of 19.6 µM. For the same molecule, the TGI (SK-MEL-5 melanoma) was 35.2 µM, the GI50 (SN12C renal) was 15.7 µM and the TGI (SN12C renal) was 29.1 µM. The GI50 (SNB-19 CNS) was 18 µM, the TGI (SNB-19 CNS) was 34.5 µM and the GI50 (SNB-75 CNS) was 15.1 µM. The TGI (SNB-75 CNS) was 32.9 µM, the GI50 (SR leukemia) was 17.5 µM and the TGI (SR leukemia) was over 100 µM. It also gave a GI50 (SW-620 colon) of 18.5 µM, a TGI (SW-620 colon) of 34.4 µM and a GI50 (TK-10 renal) of 6.7 µM. It also gave a TGI (TK-10 renal) of 24 µM, a GI50 (U251 CNS) of 14.1 µM and a TGI (U251 CNS) of 28.2 µM. It also gave a GI50 (UACC-257 melanoma) of 18.8 µM, a TGI (UACC-257 melanoma) of 36 µM and a GI50 (UACC-62 melanoma) of 16.4 µM. For the same molecule, the TGI (UACC-62 melanoma) was 29.9 µM, the GI50 (UO-31 renal) was 17.4 µM and the TGI (UO-31 renal) was 34.4 µM.
